Test results reported in patent US20250388554A1, “ANTIBACTERIAL COMPOUNDS, METHOD OF PRODUCTION AND USE THEREOF” (priority 2024, published 2025).
≈ marks a conversion by molar mass, not a printed value.

Assays:
[1] = test system: drug resistant clinical isolate S7 (Resistant to INH); test: Resazurin assay (REMA) / alamarBlue MIC; format: cell-based; conditions: Mycobacterium tuberculosis, read-out: MIC99 (S7)
[2] = test system: drug resistant clinical isolate S6 (Resistant to INH+Rifampicin); test: microbe, parasite or virus in culture; format: cell-based; conditions: Mycobacterium tuberculosis, read-out: MIC99 (S6)

| SMILES | MIC99 [1] [µM] | MIC99 [2] [µM] |
| --- | --- | --- |
| NCCSc1ncn[nH]1 [SF3, 2-(1H-1,2,4-triazol-5-ylsulfanyl)ethanamine] | 250 (≈ 36.1 µg/mL) |  |
| CC(C)C(N)c1ncnn1C (stereo not shown) [SF2, 2-methyl-1-(2-methyl-1,2,4-triazol-3-yl)propan-1-amine] | 125 (≈ 19.3 µg/mL) | 125 (≈ 19.3 µg/mL) |
| CC(N)c1ncnn1C (stereo not shown) [SF1, 1-(2-methyl-1,2,4-triazol-3-yl)ethanamine] | 250 (≈ 31.5 µg/mL) |  |
